Patent US20230085307A1, “PYRIDAZINONE COMPOUND AND HERBICIDE” (NISSAN CHEMICAL CORPORATION, priority 2019, published 2023)

Legend:
false cleavers = assay: Test Example 5: herbicidal effect by foliage application, plastic box (Table 20, symbol Q); assay type: in vivo, false cleavers (Galium spurium); conditions: foliage application, three weeks after application
In short: (§1)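 Foliar spray test: emulsion formulation diluted in water to a set application rate, sprayed onto 14-day-old plants raised in diluvial soil at 25° C to 30° C under glass. Both herbicidal effect and crop effect rated visually three weeks later.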

barnyard grass [1] = assay: Test Example 4: herbicidal effect by soil treatment (Table 19, symbol H); assay type: in vivo, barnyard grass (Echinochloa crus-galli)
In short: (§2)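 Step 1: sow seeds in sterilized diluvial soil, cover ~1.5 cm. Step 2: spray diluted emulsion onto soil surface at predetermined rate. Step 3: greenhouse, 25–30° C, three weeks. Step 4: grade effect on each plant by earlier criteria.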

velvetleaf [2] = assay: Test Example 5: herbicidal effect by foliage application, plastic box (Table 20, symbol M); assay type: in vivo, velvetleaf (Abutilon theophrasti); conditions: foliage application, three weeks after application
In short: as §1

windgrass [3] = assay: Test Example 4: herbicidal effect by soil treatment (Table 19, symbol L); assay type: in vivo, windgrass (Apera spica-venti)
In short: as §2

green foxtail [4] = assay: Test Example 5: herbicidal effect by foliage application, plastic box (Table 20, symbol G); assay type: in vivo, green foxtail (Setaria viridis); conditions: foliage application, three weeks after application
In short: as §1

lambsquarters [5] = assay: Test Example 5: herbicidal effect by foliage application, plastic box (Table 20, symbol O); assay type: in vivo, lambsquarters (Chenopodium album); conditions: foliage application, three weeks after application
In short: as §1

Chinese sprangletop = assay: Test Example 3: herbicidal effect by foliage application, Wagner pot (Table 18, symbol D); assay type: in vivo, chinese sprangletop (Leptochloa chinensis)
In short: (§3)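 Plants were sown in alluvial soil held under 0.1–0.5 cm standing water and grown 14 days in a greenhouse at 25–30 °C. An emulsifiable formulation, water-diluted to the set dose, was then sprayed onto the foliage, and effects were scored three weeks later using previously defined criteria.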

southern crabgrass [6] = assay: Test Example 4: herbicidal effect by soil treatment (Table 19, symbol F); assay type: in vivo, southern crabgrass (Digitaria ciliaris)
In short: as §2

windgrass [7] = assay: Test Example 5: herbicidal effect by foliage application, plastic box (Table 20, symbol L); assay type: in vivo, windgrass (Apera spica-venti); conditions: foliage application, three weeks after application
In short: as §1

wild oat [8] = assay: Test Example 4: herbicidal effect by soil treatment (Table 19, symbol I); assay type: in vivo, wild oat (Avena fatua)
In short: as §2

blackgrass [9] = assay: Test Example 4: herbicidal effect by soil treatment (Table 19, symbol J); assay type: in vivo, blackgrass (Alopecurus myosuroides)
In short: as §2

Italian ryegrass [10] = assay: Test Example 4: herbicidal effect by soil treatment (Table 19, symbol K); assay type: in vivo, Italian ryegrass (Lolium multiflorum)
In short: as §2

redroot pigweed = assay: Test Example 4: herbicidal effect by soil treatment (Table 19, symbol N); assay type: in vivo, redroot pigweed (Amaranthus retroflexus)
In short: as §2

Italian ryegrass [11] = assay: Test Example 5: herbicidal effect by foliage application, plastic box (Table 20, symbol K); assay type: in vivo, Italian ryegrass (Lolium multiflorum); conditions: foliage application, three weeks after application
In short: as §1

blackgrass [12] = assay: Test Example 5: herbicidal effect by foliage application, plastic box (Table 20, symbol J); assay type: in vivo, blackgrass (Alopecurus myosuroides); conditions: foliage application, three weeks after application
In short: as §1

velvetleaf [13] = assay: Test Example 4: herbicidal effect by soil treatment (Table 19, symbol M); assay type: in vivo, velvetleaf (Abutilon theophrasti)
In short: as §2

barnyard grass [14] = assay: Test Example 3: herbicidal effect by foliage application, Wagner pot (Table 18, symbol H); assay type: in vivo, barnyard grass (Echinochloa crus-galli)
In short: as §3

green foxtail [15] = assay: Test Example 4: herbicidal effect by soil treatment (Table 19, symbol G); assay type: in vivo, green foxtail (Setaria viridis)
In short: as §2

rice flat sedge = assay: Test Example 3: herbicidal effect by foliage application, Wagner pot (Table 18, symbol E); assay type: in vivo, rice flat sedge (Cyperus iria)
In short: as §3

persian speedwell [16] = assay: Test Example 5: herbicidal effect by foliage application, plastic box (Table 20, symbol R); assay type: in vivo, Persian speedwell (Veronica persica); conditions: foliage application, three weeks after application
In short: as §1

southern crabgrass [17] = assay: Test Example 5: herbicidal effect by foliage application, plastic box (Table 20, symbol F); assay type: in vivo, southern crabgrass (Digitaria ciliaris); conditions: foliage application, three weeks after application
In short: as §1

barnyard grass [18] = assay: Test Example 5: herbicidal effect by foliage application, plastic box (Table 20, symbol H); assay type: in vivo, barnyard grass (Echinochloa crus-galli); conditions: foliage application, three weeks after application
In short: as §1

persian speedwell [19] = assay: Test Example 4: herbicidal effect by soil treatment (Table 19, symbol R); assay type: in vivo, Persian speedwell (Veronica persica)
In short: as §2

chickweed = assay: Test Example 4: herbicidal effect by soil treatment (Table 19, symbol P); assay type: in vivo, common chickweed (Stellaria media)
In short: as §2

lambsquarters [20] = assay: Test Example 4: herbicidal effect by soil treatment (Table 19, symbol O); assay type: in vivo, lambsquarters (Chenopodium album)
In short: as §2

wild oat [21] = assay: Test Example 5: herbicidal effect by foliage application, plastic box (Table 20, symbol I); assay type: in vivo, wild oat (Avena fatua); conditions: foliage application, three weeks after application
In short: as §1

[22] = amount of applied herbicide 147 g/ha
[23] = amount of applied herbicide 320 g/ha

SMILES: COc1ccccc1-c1oc2ccc(C)cc2c1-c1c(O)c(C)nn(C)c1=O [9-006]
- herbicidal effect on false cleavers (Q) (false cleavers; 147 g/ha): 3 (Herbicidal rate of 40% or more and less than 70%)
- H: barnyard grass, herbicidal effect grade (barnyard grass [1]; [22]): 0 (Herbicidal rate of 5% or less (almost no effect))
- herbicidal effect on velvetleaf (M) (velvetleaf [2]; 147 g/ha): 2 (Herbicidal rate of 20% or more and less than 40%)
- L: windgrass, herbicidal effect grade (windgrass [3]; [22]): 0 (Herbicidal rate of 5% or less (almost no effect))
- herbicidal effect on green foxtail (G) (green foxtail [4]; 147 g/ha): 0 (Herbicidal rate of 5% or less (almost no effect))
- herbicidal effect on lambsquarters (O) (lambsquarters [5]; 147 g/ha): 0 (Herbicidal rate of 5% or less (almost no effect))
- Herbicidal effect on D (Chinese sprangletop), foliage application (Chinese sprangletop; [22]): 0 (Herbicidal rate of 5% or less (almost no effect))
- F: southern crabgrass, herbicidal effect grade (southern crabgrass [6]; [22]): 0 (Herbicidal rate of 5% or less (almost no effect))
- herbicidal effect on windgrass (L) (windgrass [7]; 147 g/ha): 0 (Herbicidal rate of 5% or less (almost no effect))
- I: wild oat, herbicidal effect grade (wild oat [8]; [22]): 0 (Herbicidal rate of 5% or less (almost no effect))
- J: blackgrass, herbicidal effect grade (blackgrass [9]; [22]): 0 (Herbicidal rate of 5% or less (almost no effect))
- K: Italian ryegrass, herbicidal effect grade (Italian ryegrass [10]; [22]): 0 (Herbicidal rate of 5% or less (almost no effect))
- N: redroot pigweed, herbicidal effect grade (redroot pigweed; [22]): 3 (Herbicidal rate of 40% or more and less than 70%)
- herbicidal effect on Italian ryegrass (K) (Italian ryegrass [11]; 147 g/ha): 0 (Herbicidal rate of 5% or less (almost no effect))
- herbicidal effect on blackgrass (J) (blackgrass [12]; 147 g/ha): 0 (Herbicidal rate of 5% or less (almost no effect))
- M: velvetleaf, herbicidal effect grade (velvetleaf [13]; [22]): 0 (Herbicidal rate of 5% or less (almost no effect))
- Herbicidal effect on H (barnyard grass), foliage application (barnyard grass [14]; [22]): 1 (Herbicidal rate of 5% or more and less than 20%)
- G: green foxtail, herbicidal effect grade (green foxtail [15]; [22]): 0 (Herbicidal rate of 5% or less (almost no effect))
- Herbicidal effect on E (rice flat sedge), foliage application (rice flat sedge; [22]): 2 (Herbicidal rate of 20% or more and less than 40%)
- herbicidal effect on persian speedwell (R) (persian speedwell [16]; 147 g/ha): 0 (Herbicidal rate of 5% or less (almost no effect))
- herbicidal effect on southern crabgrass (F) (southern crabgrass [17]; 147 g/ha): 0 (Herbicidal rate of 5% or less (almost no effect))
- herbicidal effect on barnyard grass (H) (barnyard grass [18]; 147 g/ha): 0 (Herbicidal rate of 5% or less (almost no effect))
- R: persian speedwell, herbicidal effect grade (persian speedwell [19]; [22]): 0 (Herbicidal rate of 5% or less (almost no effect))
- P: chickweed, herbicidal effect grade (chickweed; [22]): 0 (Herbicidal rate of 5% or less (almost no effect))
- O: lambsquarters, herbicidal effect grade (lambsquarters [20]; [22]): 0 (Herbicidal rate of 5% or less (almost no effect))
- herbicidal effect on wild oat (I) (wild oat [21]; 147 g/ha): 0 (Herbicidal rate of 5% or less (almost no effect))

SMILES: COc1cc(F)ccc1-c1oc2ccc(C)cc2c1-c1c(O)c(C)nn(C)c1=O [9-009]
- herbicidal effect on false cleavers (Q) (false cleavers; 320 g/ha): 4 (Herbicidal rate of 70% or more and less than 90%)
- H: barnyard grass, herbicidal effect grade (barnyard grass [1]; [23]): 3 (Herbicidal rate of 40% or more and less than 70%)
- herbicidal effect on velvetleaf (M) (velvetleaf [2]; 320 g/ha): 2 (Herbicidal rate of 20% or more and less than 40%)
- L: windgrass, herbicidal effect grade (windgrass [3]; [23]): 0 (Herbicidal rate of 5% or less (almost no effect))
- herbicidal effect on green foxtail (G) (green foxtail [4]; 320 g/ha): 2 (Herbicidal rate of 20% or more and less than 40%)
- herbicidal effect on lambsquarters (O) (lambsquarters [5]; 320 g/ha): 3 (Herbicidal rate of 40% or more and less than 70%)
- Herbicidal effect on D (Chinese sprangletop), foliage application (Chinese sprangletop; [23]): 0 (Herbicidal rate of 5% or less (almost no effect))
- F: southern crabgrass, herbicidal effect grade (southern crabgrass [6]; [23]): 2 (Herbicidal rate of 20% or more and less than 40%)
- herbicidal effect on windgrass (L) (windgrass [7]; 320 g/ha): 0 (Herbicidal rate of 5% or less (almost no effect))
- I: wild oat, herbicidal effect grade (wild oat [8]; [23]): 0 (Herbicidal rate of 5% or less (almost no effect))
- J: blackgrass, herbicidal effect grade (blackgrass [9]; [23]): 0 (Herbicidal rate of 5% or less (almost no effect))
- K: Italian ryegrass, herbicidal effect grade (Italian ryegrass [10]; [23]): 0 (Herbicidal rate of 5% or less (almost no effect))
- N: redroot pigweed, herbicidal effect grade (redroot pigweed; [23]): 0 (Herbicidal rate of 5% or less (almost no effect))
- herbicidal effect on Italian ryegrass (K) (Italian ryegrass [11]; 320 g/ha): 1 (Herbicidal rate of 5% or more and less than 20%)
- herbicidal effect on blackgrass (J) (blackgrass [12]; 320 g/ha): 0 (Herbicidal rate of 5% or less (almost no effect))
- M: velvetleaf, herbicidal effect grade (velvetleaf [13]; [23]): 0 (Herbicidal rate of 5% or less (almost no effect))
- Herbicidal effect on H (barnyard grass), foliage application (barnyard grass [14]; [23]): 3 (Herbicidal rate of 40% or more and less than 70%)
- G: green foxtail, herbicidal effect grade (green foxtail [15]; [23]): 3 (Herbicidal rate of 40% or more and less than 70%)
- Herbicidal effect on E (rice flat sedge), foliage application (rice flat sedge; [23]): 1 (Herbicidal rate of 5% or more and less than 20%)
- herbicidal effect on persian speedwell (R) (persian speedwell [16]; 320 g/ha): 3 (Herbicidal rate of 40% or more and less than 70%)
- herbicidal effect on southern crabgrass (F) (southern crabgrass [17]; 320 g/ha): 2 (Herbicidal rate of 20% or more and less than 40%)
- herbicidal effect on barnyard grass (H) (barnyard grass [18]; 320 g/ha): 3 (Herbicidal rate of 40% or more and less than 70%)
- R: persian speedwell, herbicidal effect grade (persian speedwell [19]; [23]): 0 (Herbicidal rate of 5% or less (almost no effect))
- P: chickweed, herbicidal effect grade (chickweed; [23]): 0 (Herbicidal rate of 5% or less (almost no effect))
- O: lambsquarters, herbicidal effect grade (lambsquarters [20]; [23]): 3 (Herbicidal rate of 40% or more and less than 70%)
- herbicidal effect on wild oat (I) (wild oat [21]; 320 g/ha): 2 (Herbicidal rate of 20% or more and less than 40%)
